{
  "source": "patent US20250332183A1",
  "about": "“COMPOSITIONS AND METHODS FOR THE STIMULATION OF INTERMEDIATE MACROPHAGES AND TREATMENTS THEREWITH” (priority 2024, published 2025)",
  "key": {"[1]": {"system": "preterm lamb model of BPD", "experiment": "Respiratory system mechanics (ventilator, forced oscillation technique, methacholine challenge)", "format": "in vivo", "protocol": "Respiratory system mechanics assessments with methacholine challenge. The respiratory system mechanics were assessed for the early-stage study (DOL1-10) and late-stage study (DOL10-90). For the early-stage research, the Drager ventilator recorded respiratory system mechanics every 5 min while the PT lambs were intubated and mechanically ventilated. The parameters were dynamic lung compliance and resistance. The inventors averaged the parameters every 12 h.\nFor the early and late-stage studies, after the lambs were extubated and transitioned to noninvasive respiratory support and spontaneously breathing (DOL7-10) and thereafter to DOL90, the inventors used forced oscillometry (FOT; model Tremoflo N-100; Thorasys, Thoracic Medical Systems Inc., Montreal, QC, Canada), with a filter (Humid-Vent Filter Small A, Teleflex Medical, Ireland). This instrument, validated in term and PT human infants,^18 allows the measurement of respiratory system mechanics in uncooperative subjects (not intubated and breathing spontaneously) by applying a pressure stimulus at the airway opening and measuring the resulting flow. The inventors used a small canine mask (product number 93815026; Midmark Corp., Versailles, OH). The FOT device was calibrated daily, and the use followed the manufacturer's instructions. The inventors used the standard TremoFlo-supplied software without modifications. The software enables post hoc inspection of the measurement time course. As recommended by the manufacturer, any measurement with a leak was discarded. FOT measurements were made for the FPT lambs at 1 month corrected postnatal age (1 moC; DOL60) and 2 moC (DOL90). The comparison time points for term reference lambs were matched for corrected postnatal age.\nFOT analysis was done on lambs that stood prone, supported by a veterinary sling. The lambs were given Lorazepam (0.1 mg/Kg, intramuscularly) to keep them calm. The mask was placed over their muzzle and held in place by a tender. The lambs were habituated to the sling and mask before testing was done. FOT was used to measure respiratory system resistance and reactance in four steps: (1) baseline, (2) bronchodilator (albuterol), (3) bronchoconstrictor (methacholine challenge), and (4) bronchodilator (albuterol). The inventors used an Aeroneb Pro nebulizer (Aerogen Ltd, Galway, Ireland) connected to the mask. The inventors repeatedly measured tissue O2 saturation by pulse oximetry, heart rate, and blood pressure. After the baseline measurement, the inventors nebulized albuterol (1.5 mL; Hi-Tech Pharmacal Co., Amityville, NY) to dilate the airways in each lamb before methacholine challenge. Airway responsiveness was assessed during stepwise increases in nebulized methacholine (Provocholine; Pancap, Inc., Markham, Ontario, Canada), according to the ATS 1999 guideline^19 and reported by the inventors for FPT and term reference lambs.^14 Methacholine concentration was doubled for each step, starting from 0.06 mg/mL up to a maximum concentration of 4.00 mg/mL. At the end of the methacholine challenge steps, 1.5 mL of albuterol was nebulized to dilate the airways. All lambs tolerated the procedure, which took 45-60 min."}, "[2]": {"system": "IL-1β, IL-6, IL-10 and soluble CD163 in lamb plasma", "experiment": "Plasma cytokine and soluble CD163 ELISA in lambs", "format": "in vivo", "conditions": "early-stage study, PT lambs vs vehicle", "from_the_text": "(§1) ELISA: The serum and bronchoalveolar lavage (BAL) fluid samples were used to quantify cytokine and soluble CD163 (sCD163) concentrations. The ELISA experiment analysis used commercially available ELISA kits, which were quantified using a plate reader. The inventors used GraphPad Prism V. 10.4. All sheep (ovine) ELISA kits were used within the expiry dates. Ovine IL-1β(Cat #ELO-IL1β), and ovine IL-6 (Cat #ELO-IL6) ELISA kits were purchased from RayBiotech, Peachtree Corners, GA, USA, sheep IL-10 (Cat #E12817Sh-96) was purchased from Lifeome Biolabs, Oceanside, CA, sheep CD163 (cat #MBS9364870) was purchased from MyBioSource, Inc. San Diego, CA, and Pierce™ BCA Protein Assay Kit (Cat #23227) from Thermo Fischer Scientific, Rockford, IL."}, "[3]": {"system": "bronchoalveolar lavage fluid (BALf)", "experiment": "Total protein (BCA) and TNF-α in lamb bronchoalveolar lavage fluid", "format": "in vivo", "from_the_text": "ELISA and BCA assay methods. BCA assay: The lamb BAL fluid samples (10d and 90d terminal studies) were centrifuged to remove the cell pellets, and the supernatant was used to assess the total protein using the Pierce™ BCA Protein Assay Kits, which were read using a BioTek synergy H1 microplate reader (Fisher Scientific, Toronto, ON, Canada).\nas §1"}, "mice [4]": {"system": "mice", "experiment": "AVR-48 pretreatment of mice followed by LPS, immune cell profile", "format": "in vivo, mouse", "conditions": "mice pretreated with AVR-48, in the presence of LPS", "from_the_text": "AVR-48 stimulated innate and adaptive immune response via (FIG. 25E) TNF-α increase and (FIG. 25F) CD3+, (FIG. 25G) CD4+, and (FIG. 25H) CD8+ T-cells, a necessary step in adaptive response and immune resolution. *p<0.05, **p<0.01, ***p<0.001; N=4, One-way ANOVA was used for analysis."}, "hPBMCs": {"system": "hPBMCs", "experiment": "hPBMCs treated 7 days with AVR-48, LPS, MPLA, Influenza-A peptides, flow cytometry", "format": "cell-based, human"}, "mice [5]": {"system": "mice", "experiment": "Mouse model of influenza peptide vaccination", "format": "in vivo", "conditions": "AVR-48 alone or with Flu-A peptide, vs MPLA", "protocol": "Study design: N=4/per group ([…], 6-7 months old). Group-1: (FluA) 1st dose; No 2nd dose; Group-2: (FluA) 1st dose; (FluA+MPLA) 2nd dose; Group 3: AVR-48 1st dose; No 2nd dose; and Group 4: Flu-A 1st dose; Flu-A+AVR-48 2nd dose.\nOutcome measures: immune cell quantification (FACS) in the spleen, and IgG in serum (ELISA).\nIn vivo study: In one study, C57Bl/6J mice (n=4/group) were dosed intramuscularly (IM) with either complete Freund's adjuvant (CFA) or incomplete Freund's adjuvant (IFA) along with AVR-48 for a 28-day study using a prime-boost-boost regimen. In the second study, mice were dosed with MPLA and Flu-peptide using only the priming dose regimen (no booster). Splenic immune cells and plasma immunoglobin concentrations were assessed at day 28."}, "[6]": {"conditions": "FOT, d90, FPT lambs vs FPT vehicle"}, "[7]": {"conditions": "ventilator-measured, invasive mechanical ventilation DOL1-7, PT lambs vs vehicle"}},
  "note": "“Also recorded” adds a separate entry of the source.",
  "data": [
    {"smiles": "CC(=O)NC1C(Oc2ccc([N+](=O)[O-])cc2)OC(CO)C(O)C1O", "note": "(centres unmarked) [AVR-48]", "values": [
      {"measurement": "resistance and reactance of the respiratory system", "setting": "[1]; FOT, DOL 60, late-stage study", "result": "No significant difference"},
      {"measurement": "baseline reactance at 5 and 10 Hz (upper and large airways)", "setting": "[1]; [6]", "result": "significantly less negative"},
      {"measurement": "baseline resistance at 5 Hz (upper and large airways)", "setting": "[1]; [6]", "result": "significantly lower"},
      {"measurement": "reactance at 5 and 10 Hz after methacholine challenge", "setting": "[1]; [6]", "result": "significantly less negative"},
      {"measurement": "reactance at 7-20 Hz after albuterol nebulization", "setting": "[1]; [6]", "result": "less negative reactance"},
      {"measurement": "resistance at 5 Hz after methacholine challenge", "setting": "[1]; [6]", "result": "significantly lower resistance"},
      {"measurement": "resistance at 7-20 Hz after albuterol nebulization", "setting": "[1]; [6]", "result": "significantly lower resistance"},
      {"measurement": "respiratory system resistance in large (5 Hz), middle (7-20 Hz), and small (41 Hz) airways", "setting": "[1]; FOT, end of early-stage study (DOL10), PT lambs 3.0 mg/kg vs vehicle", "result": "significantly lower resistance"},
      {"measurement": "airway reactance AX (area under the curve below zero)", "setting": "[1]; FOT, end of early-stage study (DOL10), PT lambs vs vehicle", "result": "significantly lower"},
      {"measurement": "dynamic lung compliance", "setting": "[1]; [7]", "result": "No statistically significant differences; also recorded: consistently lower"},
      {"measurement": "lung resistance", "setting": "[1]; [7]", "result": "No statistically significant differences"},
      {"measurement": "plasma concentration of IL-1β", "setting": "[2]; 6-10 h", "result": "significantly lower"},
      {"measurement": "plasma concentration of IL-6", "setting": "[2]; 72-75 h", "result": "significantly lower"},
      {"measurement": "plasma concentration of IL-10", "setting": "[2]; 138-150 h", "result": "significantly higher"},
      {"measurement": "total protein concentration in BALf", "setting": "[3]; 10 days, PT lambs vs vehicle", "result": "decreased total protein concentration"},
      {"measurement": "total protein concentration in BALf", "setting": "[3]; 90 days, FPT lambs", "result": "no difference was observed"},
      {"measurement": "TNF-α concentration in BALf", "setting": "[3]; early and late-stage studies", "result": "No significant change"},
      {"measurement": "CD3+ T-cells", "setting": "mice [4]", "result": "stimulated"},
      {"measurement": "CD4+ T-cells", "setting": "mice [4]", "result": "stimulated"},
      {"measurement": "CD8+ T-cells", "setting": "mice [4]", "result": "stimulated"},
      {"measurement": "M1 macrophages", "setting": "mice [4]", "result": "increased"},
      {"measurement": "Mint (intermediate) macrophages", "setting": "mice [4]", "result": "increased"},
      {"measurement": "TNF-α", "setting": "mice [4]", "result": "increase"},
      {"measurement": "TEMRE effector T-cell production", "setting": "hPBMCs; compared to MPLA", "result": "stimulated more"},
      {"measurement": "CD8+ IFN-g+ T-memory and helper cell recruitment", "setting": "hPBMCs; in the presence of influenza-A peptide", "result": "perturbated"},
      {"measurement": "CD4+ T-cells production", "setting": "hPBMCs; vs MPLA", "result": "outperformed MPLA"},
      {"measurement": "CD27− T-cells production", "setting": "hPBMCs; vs MPLA", "result": "outperformed MPLA"},
      {"measurement": "CD4+ T-helper cells in mouse spleen", "setting": "mice [5]", "result": "increased"},
      {"measurement": "CD8+ T cells in mouse spleen", "setting": "mice [5]", "result": "increased"},
      {"measurement": "CD19+ B cells in mouse spleen", "setting": "mice [5]", "result": "increased"},
      {"measurement": "CD38+/CD27+ plasma blasts in mouse spleen", "setting": "mice [5]", "result": "increased"},
      {"measurement": "IgG in mouse serum", "setting": "mice [5]", "result": "increased"}
    ]}
  ]
}
